This note sets out measurements from US9393250B2, “Phthalocyanine compounds useful as RecA inhibitors and methods of using same” (University of Saskatchewan, priority 2012, dated 2016).

Data set [1] concerns Enterococcus faecalis ATCC29212. The experiment in a line: Antibiotic sensitivity assay (CFUs/ml), E. faecalis. Type of data set: cell-based. Particulars: compound 25 μM; ciprofloxacin 6.5 μM. The protocol:
(§1) Bacterial cultures were diluted to 10^5 cells/mL in LB broth (ATCC25922) or MH broth (ATCC27853, ATCC29212, ATCC29213). Antibiotics and/or phthalocyanines were added at indicated concentrations and the culture was incubated at 37° C. Samples were collected at 0, 24, 48, and 72 hours and plated on LB agar (ATCC25922) or tryptic soy blood agar (ATCC27853, ATCC29212, ATCC29213) to determine CFUs/ml.
(§2) To confirm that the activity of 4,4-Fe-PcTs was not specific to the gram-negative ATCC25922 E. coli, the ability of 4,4-Fe-PcTs to potentiate the activity of ciprofloxacin in another gram-negative (Pseudomonas aeruginosa ATCC27853) strain and two gram-positive (Staphylococcus aureus ATCC29213 and Enterococcus faecalis ATCC29212) strains was evaluated.

Data set [2] has as its system mouse bone marrow cells. Description: Viability of mouse bone marrow cells. The conditions noted are these: maximum concentration tested (100 μM); 24 and 48 hours. Type of data set: cell-based. An excerpt:
Error bars represent the standard deviation from three independent experiments.

Data set [3] has as its system Staphylococcus aureus ATCC29213. Description: Antibiotic sensitivity assay (CFUs/ml), S. aureus. It counts as cell-based. The conditions noted are these: compound 25 μM; ciprofloxacin 6.5 μM. On the procedure:
as §1, §2

Data set [4] has as its target EcRecA (Escherichia coli, UniProt P0A7G6). The conditions noted are these: in presence of ATPγS. On the procedure: EcRecA (5 μM) was incubated with indicated concentrations of 4,4-Fe-PcTs or 3,4-Cu-PcTs in strand exchange buffer (2 mM ATP-γ-S(Sigma-Aldrich), 10 mM MgAc2, 100 mM KAc, 50 mM Hepes-Tris buffer at pH 7.6, 0.1% v/v 2-mercaptoethanol) for 10 minutes at 37° C. FAM43 (0.35 μM) was added and the reaction was incubated for 2 minutes. The reaction was started by the addition of 0.35 μM of the dsDNA substrate (annealing product of equimolar oligonucleotides 45A and 55A). The reaction was stopped at 30 minutes by adding EDTA to a final concentration of 20 mM and trypsin to a final concentration of 1 μg/μl. After 10 minutes, 10 μl of the reaction was mixed with 5 μl of loading buffer (30% glycerol and 0.1% bromophenol blue) and products were resolved using a 20% native acrylamide gel. The fluorescence emission in the gel was recorded using a Kodak GelLogic 200 system.

The subject of data set [5] is ATCC25922 cells. Description: Neutropenic murine bacterial thigh infection model. Type of data set: in vivo, Escherichia coli. On the procedure: Six-eight week-old, specific-pathogen-free, female CD-1 mice (weight, 25-35 g) were rendered neutropenic by intraperitoneal injection with 150 mg/kg cylcophosphamide (Sigma) four days before infection and 100 mg/kg cyclophosphamide 24 hours before infection. LB broth cultures inoculated from fresh ATCC25922 colonies and cells were grown to the log phase (OD600 of approximately 0.3) and diluted 1:1000 in LB broth. Thigh infections were produced by injecting 50 μl (approximately 10^6 CFUs) of diluted cultures into halothane-anesthetized mice. One group of mice was administrated inteperitoneal injection of 4,4-Fe-PcTs in conjunction with the second dose of cyclophosphamide (24 hours prior infection) (4,4-Fe-PcTs (pre)+CFX). Starting two hours after infection (defined as time zero), mice were administered subcutaneous injections of either 1 mg/kg ciprofloxacin alone (CFX) or co-treatment of 1 mg/kg ciprofloxacin with interperitoneal injection of 10 mg/kg 4,4-Fe-PcTs (4,4-Fe-PcTs+CFX and 4,4-Fe-PcTs (pre)+CFX) every 24 hours for 3 days. After 48 and 72 hours, three mice from each group were sacrificed, and their thighs removed and homogenized to determine the number of viable bacterial cells for both ciprofloxacin-sensitive and ciprofloxacin-resistant ATCC25922 cells. Serial dilutions of homogenates of the infected thigh were plated on LB agar (CFX Sensitive) and LB agar plates containing ciprofloxacin (40 nM) (CFX Resistant) to count viable cells for each of the three treatment groups.

In data set [6] the test system is ATCC29522 cells. Description: Biofilm formation assay (crystal violet). Type of data set: cell-based, Escherichia coli. Particulars: Fe-PcTs 25 μM; ciprofloxacin 40 nM; plastic surface, 96-well plate. The protocol:
Biofilm formation on a plastic surface was analyzed using a 96-well plate (Falcon) as described previously. ATCC29522 cells were diluted in LB broth to 1×10^5 CFUs/ml. A 100 μl aliquot of cells was added to each well in the plate. Ciprofloxacin (CFX) was then added at a final concentration of 40 nM to each well and plates were incubated at 37° C. for 20 hours. Wells were aspirated and washed three times with 150 μl of PBS. Wells were stained with 120 μl of 0.1% crystal violet (Fisher) for 20 minutes. The crystal violet stain was aspirated and wells were washed three times with 150 μl of PBS. The plate was air-dried and the dye bound to adherent cells was resolubilized with 150 μl of 30% (v/v) glacial acetic acid (Fisher). The plate was incubated at room temperature for 20 minutes with shaking. The biofilm formation was quantified by measuring the OD600 nm using a plate reader.

Data set [7] has as its system E. coli strain ATCC25922. Description: Antibiotic sensitivity assay (CFUs/ml), E. coli. It counts as cell-based, Escherichia coli. On the procedure:
as §1
The ability of 4,4-Fe-PcTs and 3,4-Cu-PcTs to potentiate the activity of ciprofloxacin (abbreviated “CFX”) was tested. Ciprofloxacin inhibits DNA gyrase in bacteria, causing accumulation of double-stranded DNA breaks (DSBs) and inducing the SOS response. The inventors characterized the ability of 4,4-Fe-PcTs and 3,4-Cu-PcTs to potentiate the activity of ciprofloxacin in the pathogenic E. coli strain ATCC25922, which was used previously by Cirz et al. to evaluate the role of SOS response proteins in antibiotic resistance.

Chain of EcRecA (P0A7G6 whole entry): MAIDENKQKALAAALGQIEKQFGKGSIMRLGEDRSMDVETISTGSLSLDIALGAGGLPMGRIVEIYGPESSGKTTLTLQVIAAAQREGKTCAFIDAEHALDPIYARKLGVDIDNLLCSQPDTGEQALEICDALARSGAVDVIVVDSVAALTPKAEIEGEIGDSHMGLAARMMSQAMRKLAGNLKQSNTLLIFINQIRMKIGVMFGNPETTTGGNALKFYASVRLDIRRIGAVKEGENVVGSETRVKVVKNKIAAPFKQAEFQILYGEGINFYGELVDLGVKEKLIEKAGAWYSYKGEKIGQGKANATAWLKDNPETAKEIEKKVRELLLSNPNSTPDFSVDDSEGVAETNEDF

Regarding “iron (III) phthalocyanine-4,4′,4″,4′″-tetrasulfonic acid [4,4-Fe-PcTs]”, the “potentiation of ciprofloxacin activity” value in data set [1], in data set [3] and in data set [7] (ciprofloxacin 40 nM) was “potentiated the activity of ciprofloxacin” throughout. Further, the “toxicity to mouse bone marrow” value in data set [2] is given as “not toxic”. Also, the “inhibition of DNA strand-exchange” value in data set [4] is given as “inhibited”. The “potentiation of ciprofloxacin by pretreatment versus co-treatment only” value in data set [5] (4,4-Fe-PcTs given 24 hours prior to infection plus co-treatment) is “potentiated the activity of ciprofloxacin more”. Besides, the “ciprofloxacin-resistant cells in thigh” value in data set [5] (mice co-treated with ciprofloxacin 1 mg/kg and 4,4-Fe-PcTs 10 mg/kg i.p. (with or without pretreatment)) was “no ciprofloxacin resistant cells were observed”. Besides, in data set [6], the “effect on ciprofloxacin-induced biofilm formation” value was “reduced the ability of ciprofloxacin to induce”. Further, the “CFUs on co-treatment with ampicillin” value in data set [7] (4,4-Fe-PcTs 25 μM + AMP 40 μM, after 24 hours) was “eliminating all CFUs”. Further, the “effect on activity of chloramphenicol (bacteriostatic)” value in data set [7] (4,4-Fe-PcTs 25 μM + CAM 46 μM) is listed as “very slight effect”. In addition, the “CFUs on co-treatment with ciprofloxacin” value in data set [7] (4,4-Fe-PcTs 25 μM + CFX 40 nM, after 24 hours) is recorded as “eliminating all CFUs”. For the same substance, the “CFUs on co-treatment with kanamycin” value in data set [7] (4,4-Fe-PcTs 25 μM + KAN 43 μM, after 24 hours) is listed as “eliminating all CFUs”. In addition, the “effect on activity of spectinomycin (bacteriostatic)” value in data set [7] (4,4-Fe-PcTs 25 μM + SPECT 808 μM) was “very slight effect”. In addition, the “effect on activity of tetracycline (bacteriostatic)” value in data set [7] (4,4-Fe-PcTs 25 μM + TET 21 μM) is reported as “very slight effect”. Further, the “colony forming units (CFUs)” value in data set [7] (co-treated with ciprofloxacin 40 nM and compound at concentrations above 25 μM) is recorded as “no colony forming units (CFUs) were observed”.
